Source: PubChem BioAssay AID1259408 (Genetic Toxicology Data Bank (GENE-TOX), 2018)
Activity calls are given as the source filed them. No rule for the calls is given here.

Tested on: GENE-TOX genotoxicity assays, various organisms and cells
Assay: GENE-TOX mutagenicity studies
Details: for call: Assay Type: In vivo carcinogenicity studies
[1] = Species/Cell Type: Nonhuman, Assay Code: CCG+, Evaluation Type: Evaluation A (Pre-1980)
[2] = Species/Cell Type: Nonhuman, Assay Type: Sister-chromatid exchange (SCE) in vitro, Assay Code: SC2+D, Dose Response: With dose response, Evaluation Type: Evaluation A (Pre-1980)
[3] = Species/Cell Type: Salmonella typhimurium (one or more of the five standard strains: TA98, TA100, TA1535, TA1537, and TA1538), Assay Type: Histidine reverse gene mutation, Ames assay, Assay Code: SAL+*, Activation: With metabolic activation, Evaluation Type: Evaluation A (Pre-1980)
[4] = Species/Cell Type: Drosophila melanogaster, Assay Type: Sex-linked recessive lethal gene mutation, Assay Code: SRL+, Evaluation Type: Evaluation A (Pre-1980)
[5] = Species/Cell Type: Salmonella typhimurium (one or more of the five standard strains: TA98, TA100, TA1535, TA1537, and TA1538), Assay Type: Histidine reverse gene mutation, Ames assay, Assay Code: SALT, Evaluation Type: Evaluation A (Pre-1980)
[6] = Species/Cell Type: Salmonella typhimurium (one or more of the five standard strains: TA98, TA100, TA1535, TA1537, and TA1538), Assay Type: Histidine reverse gene mutation, Ames assay, Assay Code: SAL+, Evaluation Type: Evaluation A (Pre-1980)

## Cc1c2ccccc2cc2c1ccc1ccccc12
Species/Cell Type: Chinese hamster lung (V79) cells, Assay Type: Forward gene mutation at the HPRT or ouabain locus, Assay Code: V79+*, Activation: With metabolic activation, Evaluation Type: Evaluation A (Pre-1980)
  mutagenic call: active; positive
Species/Cell Type: Drosophila melanogaster, Assay Type: Sex-linked recessive lethal gene mutation, Assay Code: SRLT, Evaluation Type: Evaluation A (Pre-1980)
  mutagenic call: no conclusion
Species/Cell Type: Mouse prostate cells, Assay Type: Cell transformation, Assay Code: CTM+D, Dose Response: With dose response, Evaluation Type: Evaluation A (Pre-1980)
  mutagenic call: active; positive
[1]
  call: active; positive
[2]
  mutagenic call: active; positive
[3]
  mutagenic call: active; positive
Species/Cell Type: Syrian hamster embryo (SHE) cells, Assay Type: Cell transformation, clonal assay, Assay Code: CTC+, Evaluation Type: Evaluation A (Pre-1980)
  mutagenic call: active; positive

## ClCC1OC1CCl (configuration not stated)
[4]
  mutagenic call: active; positive

## NCCCN1CC1
Species/Cell Type: Schizosaccharomyces pombe, Assay Type: Reverse gene mutation, Assay Code: YEZ+, Evaluation Type: Evaluation A (Pre-1980)
  mutagenic call: active; positive

## CCN(CCCl)CCCNc1c2ccc(Cl)cc2nc2ccc(OC)nc12
Species/Cell Type: Chinese hamster ovary (CHO) cells, Assay Type: Forward gene mutation at the HPRT locus, Assay Code: CHO+, Evaluation Type: Evaluation B (Post-1980)
  mutagenic call: active; positive

## CCCCN(CCC(C)=O)N=O
[3]
  mutagenic call: active; positive

## CC[N+]([O-])(CC)CCNc1ccc(C)c2sc3ccccc3c(=O)c12
[5]
  mutagenic call: no conclusion

## Oc1cccc2cc3ccc4cccc5ccc(c12)c3c45
Species/Cell Type: Nonhuman, Assay Code: CCGT, Evaluation Type: Evaluation A (Pre-1980)
  call: no conclusion
[5]
  mutagenic call: no conclusion

## COc1ccc([N+](=O)[O-])cc1N
[1]
  call: active; positive
[6]
  mutagenic call: active; positive

## Cc1cc(C)c(C)c(OC(=O)N(C)N=O)c1
[6]
  mutagenic call: active; positive

## O=P1(N(CCCl)CCCl)NCCCO1 (configuration not stated)
Species/Cell Type: Arabidopsis species, Assay Type: Gene mutation, Assay Code: ARM-, Evaluation Type: Evaluation A (Pre-1980)
  mutagenic call: inactive; negative
Species/Cell Type: Chinese hamster ovary (CHO) cells, Assay Type: Forward gene mutation at the HPRT locus, Assay Code: CHO+*, Activation: With metabolic activation, Evaluation Type: Evaluation B (Post-1980)
  mutagenic call: active; positive
[4]
  mutagenic call: active; positive
Species/Cell Type: Escherichia coli WP2, Assay Type: Tryptophan reverse gene mutation, Assay Code: WP2+, Evaluation Type: Evaluation A (Pre-1980)
  mutagenic call: active; positive
Species/Cell Type: Escherichia coli WP2 UVRA, Assay Type: Tryptophan reverse gene mutation, Assay Code: WPU+, Evaluation Type: Evaluation A (Pre-1980)
  mutagenic call: active; positive
Species/Cell Type: Escherichia coli polA (W3110 vs P3478), Assay Type: Rec-assay, DNA effects (bacterial DNA repair), Assay Code: RE2+, Evaluation Type: Evaluation A (Pre-1980)
  mutagenic call: active; positive
Species/Cell Type: F1 mouse, Sex: Male, Assay Type: Sperm morphology, Assay Code: SPF+, Evaluation Type: Evaluation A (Pre-1980)
  mutagenic call: active; positive
Species/Cell Type: Fischer rat embryo (RLV/1706) cells, Assay Type: Cell transformation, viral enhanced, Assay Code: CTR+, Evaluation Type: Evaluation A (Pre-1980)
  mutagenic call: active; positive
Species/Cell Type: Human bone marrow, Assay Type: Chromosome aberrations in vivo, Assay Code: CY5+, Evaluation Type: Evaluation A (Pre-1980)
  mutagenic call: active; positive
Species/Cell Type: Human cell culture, Assay Type: Chromosome aberrations in vitro, Assay Code: CYZ+, Evaluation Type: Evaluation A (Pre-1980)
  mutagenic call: active; positive
Species/Cell Type: Human diploid fibroblasts, Assay Type: Unscheduled DNA synthesis (UDS) in vitro, DNA effects, Assay Code: UDHT, Evaluation Type: Evaluation A (Pre-1980)
  mutagenic call: no conclusion
Species/Cell Type: Human lymphocytes or leukocytes, Assay Type: Chromosome aberrations in vitro, Assay Code: CY7+D, Dose Response: With dose response, Evaluation Type: Evaluation A (Pre-1980)
  mutagenic call: active; positive
Species/Cell Type: Human lymphocytes or leukocytes, Assay Type: Chromosome aberrations in vivo, Assay Code: CY8+, Evaluation Type: Evaluation A (Pre-1980)
  mutagenic call: active; positive
Species/Cell Type: Human lymphocytes, Assay Type: Sister-chromatid exchange (SCE) in vitro, Assay Code: SCL+D, Dose Response: With dose response, Evaluation Type: Evaluation B (Post-1980)
  mutagenic call: active; positive
Species/Cell Type: Human lymphocytes, Assay Type: Sister-chromatid exchange (SCE) in vitro, Assay Code: SCLT, Evaluation Type: Evaluation A (Pre-1980)
  mutagenic call: no conclusion
Species/Cell Type: Human lymphocytes, Assay Type: Sister-chromatid exchange (SCE) in vivo, Assay Code: SCY+, Evaluation Type: Evaluation B (Post-1980)
  mutagenic call: active; positive
Species/Cell Type: Human, Assay Type: Sister-chromatid exchange (SCE) in vitro, Assay Code: SC1+D, Dose Response: With dose response, Evaluation Type: Evaluation B (Post-1980)
  mutagenic call: active; positive
Species/Cell Type: Human, Sex: Male, Assay Type: Sperm morphology, Assay Code: SPH+, Evaluation Type: Evaluation A (Pre-1980)
  mutagenic call: active; positive
Species/Cell Type: Mammalian germ cells, Sex: Male, Assay Type: Chromosome aberrations in vivo, Assay Code: CY9+, Evaluation Type: Evaluation A (Pre-1980)
  mutagenic call: active; positive
Species/Cell Type: Mammalian oocytes or early embryo, Assay Type: Chromosome aberrations in vivo, Assay Code: CYO+D, Dose Response: With dose response, Evaluation Type: Evaluation A (Pre-1980)
  mutagenic call: active; positive
Species/Cell Type: Mammalian polychromatic erythrocytes, Assay Type: Micronucleus test, chromosome aberrations, Assay Code: MNT+, Evaluation Type: Evaluation A (Pre-1980)
  mutagenic call: active; positive
Species/Cell Type: Mouse (BALB/c-3T3) cells, Assay Type: Cell transformation, Assay Code: CTB-, Evaluation Type: Evaluation A (Pre-1980)
  mutagenic call: inactive; negative
Species/Cell Type: Mouse (C3H/10T1/2) cells, Assay Type: Cell transformation, Assay Code: CTH+D*, Activation: With metabolic activation, Dose Response: With dose response, Evaluation Type: Evaluation A (Pre-1980)
  mutagenic call: active; positive
Species/Cell Type: Mouse germ cells, Sex: Male, Assay Type: Unscheduled DNA synthesis (UDS) in vivo, DNA effects, Assay Code: UDT+, Evaluation Type: Evaluation A (Pre-1980)
  mutagenic call: active; positive
Species/Cell Type: Mouse lymphoma (L5178Y) cells, Assay Type: Forward gene mutation at the thymidine kinase (TK) locus, chromosome aberrations, Assay Code: L51+*, Activation: With metabolic activation, Evaluation Type: Evaluation A (Pre-1980)
  mutagenic call: active; positive
Species/Cell Type: Mouse, Sex: Female, Assay Type: Spot test, gene mutation, Assay Code: MST+, Evaluation Type: Evaluation A (Pre-1980)
  mutagenic call: active; positive
Species/Cell Type: Mouse, Sex: Male, Assay Type: Heritable translocation test, chromosome aberrations, Assay Code: HTT+, Evaluation Type: Evaluation A (Pre-1980)
  mutagenic call: active; positive
Species/Cell Type: Mouse, Sex: Male, Assay Type: Specific locus test, gene mutation, Assay Code: SLT+, Evaluation Type: Evaluation A (Pre-1980)
  mutagenic call: active; positive
Species/Cell Type: Mouse, Sex: Male, Assay Type: Sperm morphology, Assay Code: SPI+, Evaluation Type: Evaluation A (Pre-1980)
  mutagenic call: active; positive
Species/Cell Type: Nonhuman bone marrow, Assay Type: Chromosome aberrations, in vivo, Assay Code: CY#+D, Dose Response: With dose response, Evaluation Type: Evaluation A (Pre-1980)
  mutagenic call: active; positive
[1]
  call: active; positive
[2]
  mutagenic call: active; positive
Species/Cell Type: Nonhuman, Assay Type: Sister-chromatid exchange (SCE) in vivo, Assay Code: SC3+D, Dose Response: With dose response, Evaluation Type: Evaluation A (Pre-1980)
  mutagenic call: active; positive
Species/Cell Type: Rabbit, Sex: Male, Assay Type: Sperm morphology, Assay Code: SPRT, Evaluation Type: Evaluation A (Pre-1980)
  mutagenic call: no conclusion
Species/Cell Type: Rat, Sex: Male, Assay Type: Sperm morphology, Assay Code: SPA+, Evaluation Type: Evaluation A (Pre-1980)
  mutagenic call: active; positive
Species/Cell Type: Rodents, Sex: Male, Assay Type: Dominant lethal test, Assay Code: DLT+D, Dose Response: With dose response, Evaluation Type: Evaluation A (Pre-1980)
  mutagenic call: active; positive
Species/Cell Type: Saccharomyces cerevisiae, Assay Type: Forward gene mutation, Assay Code: YEF+, Evaluation Type: Evaluation A (Pre-1980)
  mutagenic call: active; positive
Species/Cell Type: Saccharomyces cerevisiae, Assay Type: Mitotic recombination or gene conversion, Assay Code: YEC+*, Activation: With metabolic activation, Evaluation Type: Evaluation A (Pre-1980)
  mutagenic call: active; positive
Species/Cell Type: Saccharomyces cerevisiae, Assay Type: Mitotic recombination or gene conversion, Assay Code: YEH+, Evaluation Type: Evaluation A (Pre-1980)
  mutagenic call: active; positive
Species/Cell Type: Saccharomyces cerevisiae, Assay Type: Reverse gene mutation, Assay Code: YER+, Evaluation Type: Evaluation A (Pre-1980)
  mutagenic call: active; positive
[3]
  mutagenic call: active; positive
Species/Cell Type: Salmonella typhimurium, Escherichia coli, Serratia marcesens, human lymphoid cells, Saccharomyces cerevisiae, Chinese ha, Assay Type: Forward and reverse gene mutation, mitotic recombination and gene conversion, DNA effects, chromosome aberrations, host-, Assay Code: HM6+, Evaluation Type: Evaluation A (Pre-1980)
  mutagenic call: active; positive
Species/Cell Type: Salmonella typhimurium, Saccharomyces cerevisiae, human leukocytes and diploid fibroblasts, Assay Type: Forward and reverse gene mutation, mitotic recombination and gene conversion, DNA effects, body fluid assay, Assay Code: BFJ+, Evaluation Type: Evaluation A (Pre-1980)
  mutagenic call: active; positive

## OCC(Br)CBr (configuration not stated)
[6]
  mutagenic call: active; positive

## CC(=O)NN
Species/Cell Type: Mammalian polychromatic erythrocytes, Assay Type: Micronucleus test, chromosome aberrations, Assay Code: MNT+U, Dose Response: Unconfirmed positive response, Evaluation Type: Evaluation B (Post-1980)
  mutagenic call: active; positive
